The term inhibition denotes how much of the control response was suppressed.

Assay type in all cases: functional
One experiment concerns A549. Briefly: cells. The settings on record: Homo sapiens, time 24-72 hrs.
A further experiment has as its system EKVX. Briefly: cells. The note with it: Homo sapiens, time 24-72 hrs.
A further experiment concerns HOP-62. Briefly: Antiproliferative activity against human HOP-62 cells assessed as inhibition of cell growth at 10 uM measured after 24 to 72 hrs by SRB method relative to control. The note with it: time 24-72 hrs. In general terms: In SRB staining, fixed cells bind dye roughly in proportion to their protein.
The next experiment concerns HOP-92. Nature of the experiment: cells. The note with it: Homo sapiens, time 24-72 hrs.
The next experiment has as its system NCI-H226. Nature of the experiment: cells. The note with it: Homo sapiens, time 24-72 hrs.
Another experiment relates to NCI-H23. Briefly: cells. The note with it: Homo sapiens, time 24-72 hrs.
The test system of a further experiment is NCI-H322M. Nature of the experiment: Antiproliferative activity against human NCI-H322M cells assessed as inhibition of cell growth at 10 uM measured after 24 to 72 hrs by SRB method relative to control. The note with it: time 24-72 hrs.
The next experiment has as its system NCI-H460. Briefly: cells. The settings on record: Homo sapiens, time 24-72 hrs.
The next experiment concerns NCI-H522. Briefly: Antiproliferative activity against human NCI-H522 cells assessed as inhibition of cell growth at 10 uM measured after 24 to 72 hrs by SRB method relative to control. The settings on record: time 24-72 hrs.

Molecules are shown by their SMILES. The source made the active and inactive calls. No cut-off for these calls is given here.

Description for A549: Antiproliferative activity against human A549 cells assessed as inhibition of cell growth at 10 uM measured after 24 to 72 hrs by SRB method relative to control
Description for EKVX: Antiproliferative activity against human EKVX cells assessed as inhibition of cell growth at 10 uM measured after 24 to 72 hrs by SRB method relative to control
Description for HOP-92: Antiproliferative activity against human HOP-92 cells assessed as inhibition of cell growth at 10 uM measured after 24 to 72 hrs by SRB method relative to control
Description for NCI-H226: Antiproliferative activity against human NCI-H226 cells assessed as inhibition of cell growth at 10 uM measured after 24 to 72 hrs by SRB method relative to control
Description for NCI-H23: Antiproliferative activity against human NCI-H23 cells assessed as inhibition of cell growth at 10 uM measured after 24 to 72 hrs by SRB method relative to control
Description for NCI-H460: Antiproliferative activity against human NCI-H460 cells assessed as inhibition of cell growth at 10 uM measured after 24 to 72 hrs by SRB method relative to control

On to `COc1cc2c(c(OC)c1OC)CCC(c1cccc(C(=O)Nc3ccc(Br)cc3)c1)O2` (stereo not given), for which the inhibition at 10 µM came out at 35.8% with A549; 39.5% with EKVX; 18% in the experiment with HOP-62; 83% in the experiment with HOP-92; 37.3% with NCI-H226; 24.2% in the experiment on NCI-H23. The inhibition at 10 µM in the experiment with NCI-H322M worked out at 50%; in the experiment with NCI-H460, 16%; in the experiment with NCI-H522, 51.1%.
In the case of `COc1cc2c(c(OC)c1OC)CCC(c1cccc(NC(=O)C(C)C)c1)O2` (stereo not given), the inhibition at 10 µM in the experiment on A549 is 10.7%; with NCI-H226 it was 3.99%; in the experiment on NCI-H23, 2.65%; in the experiment with NCI-H522 it was 9.48%. Moreover, the inhibition entry in the experiment on HOP-62 and in the experiment with NCI-H322M was “inactive” in each case.
Take `COc1cc(C(=O)Nc2cccc(C3CCc4c(cc(OC)c(OC)c4OC)O3)c2)cc(OC)c1OC` (stereo not given): the inhibition at 10 µM in the experiment with A549 was determined as 27.6%; in the experiment with EKVX it was 19.5%; in the experiment on HOP-62 it was 26.1%; in the experiment on HOP-92 it was 48.9%; in the experiment on NCI-H226, 23.8%; with NCI-H23, 6.7%. The inhibition at 10 µM in the experiment on NCI-H322M turned out to be 3.54%; in the experiment with NCI-H460, 12.7%; in the experiment with NCI-H522, 56.8%.
Take `COc1cc2c(c(OC)c1OC)CCC(c1cccc(C(=O)Nc3ccccc3Br)c1)O2` (stereo not given): the inhibition at 10 µM in the experiment with A549 turned out to be 18.9%; in the experiment on EKVX it was 9.92%; in the experiment on HOP-62, 7.73%; in the experiment on HOP-92, 33.7%; with NCI-H226 it was 7.74%; with NCI-H23, 2.79%. Moreover, the inhibition at 10 µM in the experiment on NCI-H322M is 5.11%; in the experiment on NCI-H522 it was 19.9%.
In the case of `COc1cccc(NC(=O)c2cccc(C3CCc4c(cc(OC)c(OC)c4OC)O3)c2)c1` (stereo not given), the inhibition at 10 µM in the experiment on A549 worked out at 29.2%; in the experiment on EKVX, 30.9%; with HOP-62, 14.8%; with HOP-92, 73.7%; with NCI-H226, 46.3%; with NCI-H23 it was 26.1%. Also, the inhibition at 10 µM with NCI-H322M turned out to be 45.8%; in the experiment on NCI-H460, 16%; in the experiment with NCI-H522, 46.9%.
Turning to `COc1cc2c(c(OC)c1OC)CCC(c1cccc(C(=O)NC(C)C)c1)O2` (stereo not given), the inhibition at 10 µM with A549 was found to be 1.14%; in the experiment with HOP-62 it was 1.41%; with HOP-92 it was 19.7%; in the experiment with NCI-H226 it was 16.4%; with NCI-H23, 6.78%; in the experiment on NCI-H322M it was 4.16%. The inhibition at 10 µM was found to be 2.47% in the experiment with NCI-H460 and 17% in the experiment with NCI-H522.
With `COc1cc2c(c(OC)c1OC)CCC(c1cccc(C(=O)Nc3cccc(Cl)c3)c1)O2` (stereo not given), the inhibition at 10 µM with A549 was 38.5%; with EKVX it was 35.8%; in the experiment with HOP-62, 20.4%; with HOP-92 it was 91.5%; in the experiment on NCI-H226, 34.4%; in the experiment on NCI-H23, 14.2%. The values for the inhibition at 10 µM with NCI-H322M, in the experiment with NCI-H460 and in the experiment on NCI-H522 were 48.3%, 15% and 48.3%, respectively.
Consider `COc1cc2c(c(OC)c1OC)CCC(c1cccc(C(=O)Nc3ccccc3)c1)O2` (stereo not given), for which the inhibition at 10 µM came to 15.8% in the experiment on A549; 9.05% in the experiment with EKVX; 6.18% in the experiment with HOP-62; 77.9% in the experiment with HOP-92; 25.6% with NCI-H226; 15.3% with NCI-H23. In addition, the inhibition at 10 µM was 41.1% in the experiment on NCI-H322M, 12.2% with NCI-H460 and 38% with NCI-H522.
On to `COc1cc2c(c(OC)c1OC)CCC(c1cccc(NC(=O)c3ccc(C#N)cc3)c1)O2` (stereo not given), for which the inhibition at 10 µM in the experiment on A549 came out at 29.4%; with EKVX, 29%; in the experiment with HOP-62 it was 21.8%; in the experiment with HOP-92 it was 10.6%; in the experiment with NCI-H226, 28.8%; in the experiment on NCI-H23 it was 28.1%. Further, the figures for the inhibition at 10 µM in the experiment on NCI-H322M, with NCI-H460 and in the experiment on NCI-H522 were 11.1%, 5.83% and 42.8%, respectively.
On to `COc1cc2c(c(OC)c1OC)CCC(c1cccc(NC(=O)c3ccccc3)c1)O2` (stereo not given), for which the inhibition at 10 µM is 19.5% in the experiment on A549; 1.13% in the experiment on HOP-62; 5.1% in the experiment with HOP-92; 19.8% in the experiment on NCI-H226; 15.6% in the experiment on NCI-H23; 5.18% in the experiment on NCI-H322M. Also, the inhibition at 10 µM with NCI-H522 is 24.3%.
For `COc1ccccc1NC(=O)c1cccc(C2CCc3c(cc(OC)c(OC)c3OC)O2)c1` (stereo not given), the inhibition at 10 µM worked out at 9.57% in the experiment on A549; 5.98% in the experiment on EKVX; 8.84% in the experiment on HOP-62; 9.4% in the experiment on HOP-92; 8.23% in the experiment on NCI-H226; 1.98% with NCI-H23. Moreover, the inhibition at 10 µM in the experiment with NCI-H322M was 11.4%; in the experiment with NCI-H460 it was 2.86%; in the experiment with NCI-H522, 27.7%.
For the molecule `COc1cc2c(c(OC)c1OC)CCC(c1cccc(NC(=O)c3cccc(Br)c3)c1)O2` (stereo not given), the inhibition at 10 µM came out at 18.8% in the experiment on A549; 15.4% in the experiment on EKVX; 0.21% in the experiment with HOP-62; 6.02% with HOP-92; 6.31% in the experiment with NCI-H226; 4.86% in the experiment on NCI-H23. For the same molecule, the inhibition at 10 µM stood at 1.51% in the experiment with NCI-H322M and 19% in the experiment on NCI-H522.
Regarding `COc1cc2c(c(OC)c1OC)CCC(c1cccc(C(=O)Nc3ccc(C#N)cc3)c1)O2` (stereo not given), the inhibition at 10 µM with A549 is 49.1%; in the experiment on EKVX, 39.9%; in the experiment on HOP-62 it was 27.9%; in the experiment with HOP-92, 47.7%; in the experiment on NCI-H226 it was 67%; in the experiment with NCI-H23, 59.4%. For the same molecule, the results for the inhibition at 10 µM in the experiment with NCI-H322M, in the experiment on NCI-H460 and with NCI-H522 were 22.6%, 43.5% and 61.6%, respectively.
For the molecule `COc1cc2c(c(OC)c1OC)CCC(c1cccc(NC(=O)c3ccc(Br)cc3)c1)O2` (stereo not given), the inhibition at 10 µM in the experiment on A549 was found to be 32.6%; in the experiment on EKVX, 22.8%; in the experiment with HOP-62 it was 12.8%; in the experiment on HOP-92, 41.5%; in the experiment with NCI-H226, 27.6%; in the experiment with NCI-H23, 19.9%. Further, the values for the inhibition at 10 µM in the experiment on NCI-H322M, in the experiment on NCI-H460 and with NCI-H522 were 24.9%, 6.47% and 25.4%, respectively.
Take `COc1cc2c(c(OC)c1OC)CCC(c1cccc(C(=O)Nc3ccc([N+](=O)[O-])cc3)c1)O2` (stereo not given): the inhibition at 10 µM with A549 was found to be 44.8%; in the experiment with EKVX it was 44.6%; with HOP-62 it was 23.3%; in the experiment with HOP-92 it was 57.4%; with NCI-H226 it was 51.7%; with NCI-H23, 52.8%. For the same molecule, the figures for the inhibition at 10 µM in the experiment with NCI-H322M, in the experiment with NCI-H460 and in the experiment on NCI-H522 were 31.7%, 41.1% and 50.4%, respectively.
Consider `COc1cc2c(c(OC)c1OC)CCC(c1cccc(NC(=O)c3ccccc3Br)c1)O2` (stereo not given), for which the inhibition at 10 µM with A549 came out at 13.8%; with EKVX, 7.82%; with HOP-62, 2.7%; in the experiment with HOP-92, 8.39%; in the experiment with NCI-H226, 14.6%; in the experiment on NCI-H23 it was 5.1%. The inhibition at 10 µM was determined as 6.37% in the experiment with NCI-H322M and 20.7% in the experiment with NCI-H522.

The values are drawn from ChEMBL document CHEMBL5390198, “Scaffold hopping of N-benzyl-3,4,5-trimethoxyaniline: 5,6,7-Trimethoxyflavan derivatives as novel potential anticancer agents modulating hippo signaling pathway” (2023).
